From PubChem BioAssay (NCI) come the findings set out here.

Among the test systems are A549 NSCLC; BT-549 breast; HS 578T breast; LOX IMVI melanoma; NCI/ADR-RES ovarian; OVCAR-8 ovarian; SF-295 CNS; SF-539 CNS; SK-MEL-28 melanoma.
Common to all, as to experiment: NCI-60 cell line screen, 48 h

Each structure is given as a SMILES string. Where “and” joins values, the source holds several entries; their conditions need not be identical. Equal values may be shown once.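 All cell lines were grown in 96-well plates and treated with compound for 48 hours. GI50 marks 50% less growth. TGI marks complete inhibition of growth.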 Some results are limits rather than exact numbers.

Turning to `COc1c/c(=C2\C=c3ccccc3=N2)[nH]/c1=C\c1[nH]c(C)cc1C`, the GI50 in the experiment on A549 NSCLC was 0.139 µM; in the experiment on BT-549 breast, 0.0319 µM; with HS 578T breast it was 0.0131 µM; in the experiment on LOX IMVI melanoma, under 0.01 µM; with NCI/ADR-RES ovarian, 0.17 µM; in the experiment with OVCAR-8 ovarian, 0.214 µM. The results for the GI50 in the experiment with SF-295 CNS, in the experiment with SF-539 CNS and in the experiment with SK-MEL-28 melanoma were 0.034 µM, 0.0466 µM and 0.103 µM, respectively. Also, the TGI with A549 NSCLC was 19.2 µM; in the experiment on BT-549 breast, 31.3 µM; in the experiment with HS 578T breast, 0.433 µM; with NCI/ADR-RES ovarian, over 55.3 µM; in the experiment with OVCAR-8 ovarian, over 21.8 µM; with SF-295 CNS, 0.593 µM. Besides, the results for the TGI in the experiment on SF-539 CNS and in the experiment with SK-MEL-28 melanoma were 4.19 µM and 26.3 µM, respectively.

With `COC(=O)[C@@H]1c2cc3c(c(O)c2[C@@H](OC2OC(C)C(OC)C(C)(OC)C2OC)C[C@]1(C)O)C(=O)c1c(O)cc2c(c1C3=O)O[C@H]1O[C@]2(C)[C@H](O)[C@@H](N(C)C)[C@@H]1O` (stereo not given in full), the TGI is 10.3 µM in the experiment with A549 NSCLC; 0.0588 µM in the experiment on BT-549 breast; 0.147 µM in the experiment with HS 578T breast; 0.152 µM and 1.22 µM in the experiment on LOX IMVI melanoma; 0.532 µM and 0.348 µM in the experiment with OVCAR-8 ovarian; 0.254 µM and 1.22 µM with SF-295 CNS. The TGI in the experiment with SF-539 CNS is 0.16 µM and 0.0302 µM; in the experiment with SK-MEL-28 melanoma it was 0.0699 µM and 0.0273 µM.

As to `CCCCCCCCCCCCCCCC1=NCC[N+]1(CCO)CCO`, the GI50 was 2.28 µM in the experiment with A549 NSCLC; 3.3 µM with BT-549 breast; 2.51 µM with HS 578T breast; 2.62 µM with NCI/ADR-RES ovarian; 3.03 µM in the experiment with OVCAR-8 ovarian; 10.5 µM with SF-295 CNS. Further, the GI50 is 1.91 µM in the experiment on SF-539 CNS and 5.1 µM in the experiment on SK-MEL-28 melanoma. For the same compound, the TGI came to 5.35 µM with A549 NSCLC; 11.9 µM in the experiment on BT-549 breast; 7.17 µM in the experiment on HS 578T breast; 6.61 µM in the experiment on NCI/ADR-RES ovarian; 8.36 µM in the experiment on OVCAR-8 ovarian; 26.3 µM with SF-295 CNS. Further, the TGI is 4 µM in the experiment on SF-539 CNS and 16.8 µM in the experiment with SK-MEL-28 melanoma.

Consider `COc1cc(/C=C/c2cc(/C=C/c3ccc(O)c(OC)c3)n(C(=O)c3ccc(Cl)cc3)n2)ccc1O`, for which the GI50 was 3.3 µM with A549 NSCLC; 1.83 µM in the experiment with BT-549 breast; 3.23 µM in the experiment with HS 578T breast; 2.9 µM with NCI/ADR-RES ovarian; 2.8 µM in the experiment on OVCAR-8 ovarian; 3.13 µM with SF-295 CNS. The figures for the GI50 with SF-539 CNS and with SK-MEL-28 melanoma were 1.24 µM and 2.49 µM, respectively. The TGI in the experiment with A549 NSCLC is 12.8 µM; in the experiment with BT-549 breast, 8.32 µM; in the experiment with HS 578T breast, over 100 µM; in the experiment with NCI/ADR-RES ovarian it was 18 µM; in the experiment with OVCAR-8 ovarian it was 8.14 µM; in the experiment with SF-295 CNS, 12.4 µM. The TGI worked out at 6.07 µM in the experiment with SF-539 CNS and 12.2 µM with SK-MEL-28 melanoma.

Regarding `COc1cc(/C=C2\CC3C4CC=C5C[C@@H](OC(C)=O)CC[C@]5(C)C4CC[C@]3(C)C2=O)ccc1OCCN1CCCCC1` (stereo not given in full), the GI50 in the experiment on A549 NSCLC is 3.42 µM; in the experiment on BT-549 breast, 15.1 µM; in the experiment with LOX IMVI melanoma, 1.26 µM; in the experiment on NCI/ADR-RES ovarian, 3.56 µM; in the experiment with OVCAR-8 ovarian, 4.27 µM; with SF-295 CNS, 2.41 µM. The GI50 in the experiment with SF-539 CNS is 2.02 µM; with SK-MEL-28 melanoma, 3.24 µM. For the same compound, the TGI in the experiment on A549 NSCLC is over 100 µM; with BT-549 breast it was 31.7 µM; in the experiment on LOX IMVI melanoma, 3.31 µM; in the experiment on NCI/ADR-RES ovarian, 6.89 µM; in the experiment with OVCAR-8 ovarian, 28.2 µM; with SF-295 CNS, 5.08 µM. Moreover, the TGI with SF-539 CNS is 3.82 µM; in the experiment with SK-MEL-28 melanoma it was over 100 µM.

Regarding `Cc1c(C)n(CCCN2CCN(C)CC2)c2ccc(Oc3cccc(C(=O)N4CCN(CCc5ccc(F)cc5)CC4)c3)cc12`, the GI50 is 1.81 µM in the experiment on A549 NSCLC; 1.58 µM in the experiment with BT-549 breast; 2.05 µM with HS 578T breast; 1.75 µM in the experiment on LOX IMVI melanoma; 1.79 µM in the experiment on NCI/ADR-RES ovarian; 1.85 µM in the experiment on SF-295 CNS. Also, the GI50 in the experiment on SF-539 CNS was 1.63 µM; in the experiment with SK-MEL-28 melanoma it was 1.78 µM. For the same compound, the TGI amounted to 3.62 µM in the experiment with A549 NSCLC; 3.19 µM in the experiment with BT-549 breast; 4.51 µM in the experiment on HS 578T breast; 3.19 µM in the experiment with LOX IMVI melanoma; 3.54 µM with NCI/ADR-RES ovarian; 3.33 µM with SF-295 CNS. In addition, the TGI in the experiment with SF-539 CNS was determined as 3.03 µM; with SK-MEL-28 melanoma it was 3.24 µM.

Take `O=C(CSc1nc2c(n1Nc1ccccc1)-c1ccccc1SC2)Nc1nc(-c2ccc(Cl)cc2)cs1`: the GI50 in the experiment on BT-549 breast was 33.5 µM; with HS 578T breast it was 6.35 µM; with LOX IMVI melanoma it was over 100 µM; with NCI/ADR-RES ovarian it was 25.5 µM; in the experiment with OVCAR-8 ovarian, 6.42 µM; with SF-295 CNS it was 11.3 µM. Also, the GI50 in the experiment on SF-539 CNS is 25.8 µM; in the experiment on SK-MEL-28 melanoma, over 100 µM. For the same compound, the TGI with BT-549 breast was over 100 µM; in the experiment with HS 578T breast, 78.7 µM; in the experiment with LOX IMVI melanoma, over 100 µM; with NCI/ADR-RES ovarian, over 100 µM; in the experiment on OVCAR-8 ovarian, over 100 µM; with SF-295 CNS, 33.5 µM. The TGI with SF-539 CNS and in the experiment with SK-MEL-28 melanoma was over 100 µM each time.
